Reference: patent publication US8691528B2, “Cell penetrating peptide” (Mitsubishi Tanabe Pharma Corporation, priority 2005, dated 2014)
“Also recorded” adds a separate entry of the source.

Columns and labels:
Type in all cases: cell-based
CHO cells [1] = assay: Test of translocation of fluorescence-labeled peptides into CHO cells (FACS and confocal microscopic analysis); settings: FACS
Jurkat cells = assay: Confocal microscopic analysis of intracellular translocation of synthetic peptides in Jurkat cells
Method: (§1) Three kinds of cells were used for incorporating the peptides: CHO cells (ATCC NO. CCL-61), HeLa cells, and Jurkat cells. 10^4 CHO cells and HeLa cells and 10^5 Jurkat cells were separately inoculated to a 96-well plate, and cultured for 2 or 3 days. Subsequently, when the cells became confluent, each peptide solution was added to each type of cell, and the cells were incubated for 1 hour. After each type of cell was washed with PBS three times, 100 μL of 0.25% trypsin-1 mM EDTA solution was added, and trypsinization was performed at room temperature for 5 minutes. After 400 μL of PBS (10% FCS) was added to neutralize the trypsin, the cells were washed with 1 mL of HBSS (Hanks' Balanced Salt Solution/produced by Invitrogen) three times. After the washing, the cells were suspended in 50 μL of HBSS and analyzed using a confocal microscope. Measurements and analysis were performed using a confocal differential interference laser microscope system (Bio-Rad, Radience2100/Green He-Ne, 488 nm, microscope: Nikon, ECLIPSE E600).
In Jurkat cells as well, intracellular translocation experiments of synthetic peptides of modified PTD sequences were performed by confocal microscopic analysis.

HeLa cells = assay: Confocal microscopic analysis of intracellular translocation of synthetic peptides in HeLa cells
Method: as §1
In HeLa cells as with CHO cells, intracellular translocation experiments of synthetic peptides of modified PTD sequences were performed by confocal microscopic analysis.

CHO cells [2] = assay: Test of translocation of fluorescence-labeled peptides into CHO cells (FACS and confocal microscopic analysis); settings: for intracellular translocation compared with KSH1 (in words): 12.5 μM and 6.5 μM
Method: Each peptide solution, adjusted to 1 mM, was diluted with a medium to three levels, 100 μM, 50 μM, and 25 μM, and added to cells. Three kinds of cells were used: CHO cells, HeLa cells, and Jurkat cells. After each peptide solution was added, the cells were incubated for 1 hour. After the cells were washed with PBS three times, 100 μL of 0.25% trypsin-1 mM EDTA solution was added, and trypsinization was performed at room temperature for 5 minutes. After 400 μL of PBS (10% FCS) was added to stop the trypsinization, the cells were washed with 1 mL of HBSS three times. After the washing, the cells were suspended in 500 μL of PBS (10% FCS) and subjected to flowcytometry (hereinafter, FACS) analysis using FACS Calibur (Becton Dickinson).
Each peptide was synthesized, fluorescently labeled, purified and dissolved in the same manner as Example 1-2, a test of translocation into CHO cells was performed, and an evaluation was performed by confocal microscopic analysis and FACS. FACS analysis was performed in the same manner as Example 1-3. For the KSH1 peptide and modified PTD sequences, i.e., KSH1-1 to KSH1-9 peptides (SEQ ID NOS:1 to 9 in the sequence listing), fluorescence intensities determined by FACS analysis are shown in FIG. 6. The peptide addition concentrations were 50 μM, 25 μM, 12.5 μM and 6.5 μM.
To determine which amino acids are important to the intracellular translocation, comprehensive alanine substitution was performed on the basis of KSH1-1 to design KSH1-11 (SEQ ID NO:11 in the sequence listing) to KSH1-23 (SEQ ID NO:22 in the sequence listing) and KSH1-35 (SEQ ID NO:32 in the sequence listing) (FIG. 7). Each peptide was synthesized, fluorescently labeled, purified and dissolved in the same manner as Example 1-2, a test of translocation into CHO cells was performed, and an evaluation was performed by confocal microscopic analysis and FACS. FACS analysis was performed in the same manner as Example 1-3. For KSH1 and modified PTD sequences, i.e., KSH11-11 to 23 and KSH1-35, fluorescence intensities determined by FACS analysis are shown in FIG. 8. The peptide addition concentrations were 50 μM, 25 μM, 12.5 μM and 6.5 μM.
(§2) Each peptide was synthesized, fluorescently labeled, purified and dissolved in the same manner as Example 1-2, a test of translocation into CHO cells was performed, and an evaluation was performed by confocal microscopic analysis and FACS analysis. FACS analysis was performed in the same manner as Example 1-3. For KSH1 and modified PTD sequences, i.e., KSH11-24 to 1-26 and KSH1-28 to 1-30, fluorescence intensities determined by FACS analysis are shown in FIG. 10. The peptide addition concentrations were 50 μM, 25 μM, 12.5 μM and 6.5 μM.
as §2, with “KSH1-27, KSH1-33, KSH1-34” for “KSH11-24 to 1-26”, “KSH1-36,” for “KSH1-28 to 1-30,”, “12.” for “10.”
Each peptide was synthesized, fluorescently labeled, purified and dissolved in the same manner as Example 1-2, and an intracellular translocation test in CHO cells was performed by FACS analysis. Used for positive control were a PTD sequence derived from HIV TAT ([…] in the sequence listing) and the KSH1 peptide; used for negative control was a peptide sequence lacking intracellular transferability (SEQ ID NO:57 in the sequence listing).

CHO cells [3] = assay: Confocal microscopic analysis of translocation of fluorescence-labeled peptides into CHO cells; settings: for intracellular translocation profile compared with PTD1: Example 5-2, 50 μM to 12.5 μM (FIG. 19: 25 μM)
Method: as §1
Furthermore, CHO cells were inoculated to a slide chamber (produced by Nunc), 25 μM of each of the KSH1 peptide and positive control was added to the CHO cells, and the intracellular transferability thereof was determined using a confocal microscope.
For KSH2 to KSH10 (SEQ ID NOS:35 to 43 in the sequence listing), a test of translocation into CHO cells was performed in the same manner as Example 1-2, and confocal microscopic analysis was performed. Used for positive control were a PTD sequence derived from HIV TAT (SEQ ID NO:50 in the sequence listing) and the KSH1 peptide; used for negative control was a peptide sequence lacking intracellular transferability (SEQ ID NO:57 in the sequence listing).
In the confocal microscopic analysis, a background correction was performed using cells to which the negative control peptide (SEQ ID NO:57 in the sequence listing) had been added. Thereafter, the positive control PTD1 peptide (SEQ ID NO:50 in the sequence listing) was added, and fluorescence in the cells was examined.
Regarding novel PTD sequence, each peptide was analyzed in a series of 2-fold dilutions at three levels from 50 μM to 12.5 μM. […] The PTD candidate sequences identified here clearly retained the capability of intracellular translocation.

[4] = test system: CHO cells, HeLa cells, and Jurkat cells; assay: Confocal microscopic analysis of intracellular translocation of fluorescence-labeled peptides; settings: fluorescence-labeled peptide, confocal microscope
Text: With the PTD derived from HIV TAT protein shown by SEQ ID NO:50 in the sequence listing as the positive control (in FIG. 1 to FIG. 3, denoted by “Positive” or “TAT”), and a mutant of the TAT-derived PTD shown by SEQ ID NO:51 in the sequence listing, reported by Ulo Langel et al. (Cell-Penetrating Peptides: Processes and Applications, Series: Pharmacology and Toxicology: Basic and Clinical Aspects Volume:3, 2002), as the negative control (in FIG. 1, denoted by “Negative”), the peptides of the 11 sequences selected in Example 1-1 were evaluated.
The peptides of the 11 sequences selected in Example 1-1 were synthesized by the solid phase method, and fluorescently labeled by coupling 5,6-Carboxyfluorescein to the N-terminus of each peptide. Furthermore, the peptides were purified by HPLC to obtain a purity of 70% or more. Subsequently, each fluorescently labeled peptide was dissolved in 10% Dimethyl Sulfoxide (DMSO) to obtain 1 mM (hereinafter referred to as peptide solution).
as §1
Of the novel PTD sequences found in Example 5, the KSH2 peptide is highly capable of translocating eGFP into cells; an attempt was made to modify the KSH2 peptide. The KSH2-1 to KSH2-4 peptides (SEQ ID NOS:44 to 47 in the sequence listing) were synthesized, fluorescently labeled, purified and dissolved in the same manner as Example 1-2, a test of translocation into CHO cells was performed, and confocal microscopic analysis was performed.
First, two cases were examined: two cysteines were substituted with alanine (KSH2-1) or with tryptophan (KSH2-2). FITC-labeled peptides were synthesized, and their intracellular translocation efficiencies were examined using CHO, HeLa, and Jurkat cells (FIG. 21, the peptide addition concentration was 50 μM, 25 μM or 12.5 μM).

KSH1-1: KSH1 with the lysine of the lysine/arginine cluster substituted with arginine (RLWMRWYSPTTRRYG; Designed peptide to act as PTD(Protein Transduction Domain))
intracellular translocation compared with KSH1 (CHO cells [1]; 6.25 μM): about 2 times
intracellular translocation in Jurkat cells as compared to that of SEQ ID NO:37 (Jurkat cells): better intracellular translocation
intracellular translocation in HeLa cells (modified peptides with better translocation) (HeLa cells; confocal microscopic analysis): better intracellular translocation
intracellular translocation compared with KSH1 (in words) (CHO cells [2]; 50 μM, 25 μM): clearly accentuated intracellular translocation
intracellular translocation compared with KSH1 (CHO cells [2]; FACS, 12.5 μM): about 8 times
intracellular translocation compared with KSH1 (CHO cells [2]; FACS, 25 μM): about 2 times
decrease of translocation efficiency compared with KSH1 (CHO cells [2]; FACS, 50 μM): about 20%

KSH1-7: KSH1 with threonine substituted with tryptophan to form a tryptophan cluster (KLWMRWYSPWTRRYG; Designed peptide to act as PTD(Protein Transduction Domain))
intracellular translocation compared with KSH1 (CHO cells [1]; between 25 μM and 6.15 μM): not less than 3 times
intracellular translocation in Jurkat cells as compared to that of SEQ ID NO:37 (Jurkat cells): better intracellular translocation
intracellular translocation in HeLa cells compared with CHO cells (HeLa cells; confocal microscopic analysis): lower
intracellular translocation compared with KSH1 (in words) (CHO cells [2]; 50 μM, 25 μM): accentuated remarkably; also recorded: clearly accentuated intracellular translocation
intracellular translocation compared with KSH1 (CHO cells [2]; FACS, 12.5 μM): not less than 10 times

KSH1: novel PTD candidate sequence of 15 amino acids selected from the random peptide library (KLWMRWYSPTTRRYG; Designed peptide to act as PTD(Protein Transduction Domain))
translocation into CHO cells (CHO cells [3]; slide chamber, 25 μM): translocated into all CHO cells
localization of the intracellularly transported peptide [4]: detected both in the nucleus and in cytoplasm
fluorescence from the peptide in the cells ([4]; incubated 1 hour): fluorescence from the KSH1 peptide was observed
fluorescence intensity compared with the positive control (PTD derived from HIV TAT, SEQ ID NO:50) ([4]; incubated 1 hour): higher than the fluorescence intensity of the positive control
intracellular transferability among the peptides of the 11 selected sequences ([4]; incubated 1 hour): highest intracellular transferability

KSH2: novel PTD sequence from the 7-time-concentrated library of Jurkat cells (WKCRRQCFRVLHHWN; Designed peptide to act as PTD(Protein Transduction Domain))
intracellular translocation profile compared with PTD1 (CHO cells [3]): better intracellular translocation profiles than PTD1
localization of the peptide in HeLa cells (HeLa cells; Example 5-2): localized as fringing the surface of the cell membrane

KSH3: novel PTD sequence from the 7-time-concentrated library of Jurkat cells (IPSRWKDQFWKRWHY; Designed peptide to act as PTD(Protein Transduction Domain))
intracellular translocation profile compared with PTD1 (CHO cells [3]): better intracellular translocation profiles than PTD1

KSH4: novel PTD sequence from the 7-time-concentrated library of Jurkat cells (KNAWKHSSCHHRHQI; Designed peptide to act as PTD(Protein Transduction Domain))
intracellular translocation profile compared with PTD1 (CHO cells [3]): better intracellular translocation profiles than PTD1

KSH6: novel PTD sequence from the 7-time-concentrated library of Jurkat cells (LITKQYRYPSRRRFN; Designed peptide to act as PTD(Protein Transduction Domain))
intracellular translocation profile compared with PTD1 (CHO cells [3]): better intracellular translocation profiles than PTD1

KSH7: novel PTD sequence from the 7-time-concentrated library of Jurkat cells (QQHLLIAINGYPRYN; Designed peptide to act as PTD(Protein Transduction Domain))
intracellular translocation profile compared with PTD1 (CHO cells [3]): better intracellular translocation profiles than PTD1

KSH10: novel PTD sequence from the 7-time-concentrated library of Jurkat cells (KRPTMRFRYTWNPMK; Designed peptide to act as PTD(Protein Transduction Domain))
intracellular translocation profile compared with PTD1 (CHO cells [3]): better intracellular translocation profiles than PTD1
